Values quoted from earlier work as cited in patent publication US9464021B2, “Method of preparation of stereospecific quinone derivatives” (priority 2013, dated 2016).

How the values were obtained:
[1] = in vivo
[2] = liver fractions

| SMILES | biological activity as vitamin K [1] | hepatic subcellular distribution [2] |
| --- | --- | --- |
| CC1=C(C/C=C(/C)CCC[C@H](C)CCC[C@H](C)CCCC(C)C)C(=O)c2ccccc2C1=O (relative stereo) [cis-phylloquinone] | little or no biological activity as vitamin K | retained preferentially by mitochondria |
| CC1=C(C/C=C(\C)CCC[C@H](C)CCC[C@H](C)CCCC(C)C)C(=O)c2ccccc2C1=O (single isomer, unassigned) [trans isomer, phylloquinone] | full potency of the vitamin | associated principally with the microsomal fraction and subfractions |
